pIC50: −log10 of the molar value.
What was measured:
PC-3 = experiment: Cytotoxicity of compound against PC-3 cell line; type: functional, cell-based; conditions: Homo sapiens
P388 = experiment: Inhibitory activity of compound against P388 murine cell line; range is 0.3 uM-1.6 uM; type: functional, cell-based; conditions: Mus musculus
[1] = molecular target: T1, DNA topoisomerase 2-alpha (Homo sapiens, UniProt P11388); experiment: Inhibitory activity of compound against human DNA topoisomerase II, alpha was evaluated by ability to interfere with the relaxation of supercoiled plasmid DNA
T1 sequence (P11388 whole entry): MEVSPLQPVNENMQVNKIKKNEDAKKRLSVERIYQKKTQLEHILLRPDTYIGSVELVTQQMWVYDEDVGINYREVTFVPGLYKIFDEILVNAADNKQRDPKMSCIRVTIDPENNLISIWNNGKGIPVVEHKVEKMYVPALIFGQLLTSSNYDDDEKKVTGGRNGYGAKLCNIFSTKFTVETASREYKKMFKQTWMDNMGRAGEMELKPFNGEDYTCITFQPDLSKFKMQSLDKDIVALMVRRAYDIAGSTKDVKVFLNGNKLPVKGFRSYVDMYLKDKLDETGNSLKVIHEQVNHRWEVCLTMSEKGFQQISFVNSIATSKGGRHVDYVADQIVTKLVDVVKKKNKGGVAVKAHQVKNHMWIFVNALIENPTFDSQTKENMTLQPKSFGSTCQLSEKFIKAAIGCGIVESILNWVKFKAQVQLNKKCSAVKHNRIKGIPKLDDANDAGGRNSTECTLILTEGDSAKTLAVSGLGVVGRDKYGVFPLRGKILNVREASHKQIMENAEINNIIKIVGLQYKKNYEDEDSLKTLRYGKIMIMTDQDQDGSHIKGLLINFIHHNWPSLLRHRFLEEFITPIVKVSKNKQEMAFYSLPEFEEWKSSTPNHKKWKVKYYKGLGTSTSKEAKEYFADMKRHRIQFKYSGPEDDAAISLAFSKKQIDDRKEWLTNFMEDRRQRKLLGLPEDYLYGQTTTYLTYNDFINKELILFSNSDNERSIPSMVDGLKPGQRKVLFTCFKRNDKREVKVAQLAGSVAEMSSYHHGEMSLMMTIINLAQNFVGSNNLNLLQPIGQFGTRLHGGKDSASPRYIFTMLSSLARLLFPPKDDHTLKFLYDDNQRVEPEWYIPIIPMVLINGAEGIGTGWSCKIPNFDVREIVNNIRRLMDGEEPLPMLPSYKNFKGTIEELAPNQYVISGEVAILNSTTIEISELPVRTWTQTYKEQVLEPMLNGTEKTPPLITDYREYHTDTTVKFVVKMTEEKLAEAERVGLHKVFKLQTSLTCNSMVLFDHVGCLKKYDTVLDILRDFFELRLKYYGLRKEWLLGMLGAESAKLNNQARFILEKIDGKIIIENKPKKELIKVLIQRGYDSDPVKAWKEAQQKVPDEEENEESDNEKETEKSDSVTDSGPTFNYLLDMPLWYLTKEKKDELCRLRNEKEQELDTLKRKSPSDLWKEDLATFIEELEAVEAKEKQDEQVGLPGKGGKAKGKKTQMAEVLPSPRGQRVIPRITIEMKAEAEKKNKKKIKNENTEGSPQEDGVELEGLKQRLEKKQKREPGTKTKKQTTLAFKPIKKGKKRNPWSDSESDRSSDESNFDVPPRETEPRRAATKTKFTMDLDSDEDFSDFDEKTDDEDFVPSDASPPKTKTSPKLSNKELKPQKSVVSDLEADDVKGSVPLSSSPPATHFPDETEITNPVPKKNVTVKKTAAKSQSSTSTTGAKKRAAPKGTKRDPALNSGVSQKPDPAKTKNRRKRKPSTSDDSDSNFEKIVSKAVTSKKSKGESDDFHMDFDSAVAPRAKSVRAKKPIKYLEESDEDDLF

[2] = molecular target: T1, DNA topoisomerase 2-alpha; experiment: Inhibitory concentration against human DNA topoisomerase II, alpha mediated relaxation of pBR322
HL-60 = experiment: Cytotoxicity of compound against HL60 cell line; type: functional, cell-based; conditions: Homo sapiens
[3] = molecular target: T1, DNA topoisomerase 2-alpha; experiment: Inhibitory concentration against human DNA topoisomerase II, alpha mediated relaxation of pBR322; no measurable activity

pIC50 (P388)	pIC50 [1]	pIC50 [2]	pIC50 [3]	Compound	pIC50 (PC-3)	pIC50 (HL-60)
6.52	4.49	4.30	–	COC(=O)c1cccc2oc(-c3cccc4oc(-c5ccccc5O)nc34)nc12	6.40	6.49
–	–	–	< 4.00	c1ccc(-c2nc3c(-c4nc5ccccc5o4)cccc3o2)cc1	–	–
–	4.70	4.70	–	Oc1ccccc1-c1nc2c(-c3nc4ccccc4o3)cccc2o1	–	–
–	–	4.42	–	COC(=O)c1cccc2oc(-c3cccc4oc(-c5ccccc5)nc34)nc12	–	–

— ChEMBL document CHEMBL1137930, “Critical structural motif for the catalytic inhibition of human topoisomerase II by UK-1 and analogs” (Bioorg Med Chem Lett, 2004)
